IC50 data for 38 compounds are collected here from patent US9290511B2, “Thieno-pyrimidines, useful as potassium channel inhibitors” (XENTION LIMITED, priority 2011, dated 2016).

Experiment [1] deals with T1, Kir3.1/3.4 (Rattus norvegicus, UniProt P48548+P63251).
T1 construct: expressed in transfected cells
T1 sequence (P63251 1-501): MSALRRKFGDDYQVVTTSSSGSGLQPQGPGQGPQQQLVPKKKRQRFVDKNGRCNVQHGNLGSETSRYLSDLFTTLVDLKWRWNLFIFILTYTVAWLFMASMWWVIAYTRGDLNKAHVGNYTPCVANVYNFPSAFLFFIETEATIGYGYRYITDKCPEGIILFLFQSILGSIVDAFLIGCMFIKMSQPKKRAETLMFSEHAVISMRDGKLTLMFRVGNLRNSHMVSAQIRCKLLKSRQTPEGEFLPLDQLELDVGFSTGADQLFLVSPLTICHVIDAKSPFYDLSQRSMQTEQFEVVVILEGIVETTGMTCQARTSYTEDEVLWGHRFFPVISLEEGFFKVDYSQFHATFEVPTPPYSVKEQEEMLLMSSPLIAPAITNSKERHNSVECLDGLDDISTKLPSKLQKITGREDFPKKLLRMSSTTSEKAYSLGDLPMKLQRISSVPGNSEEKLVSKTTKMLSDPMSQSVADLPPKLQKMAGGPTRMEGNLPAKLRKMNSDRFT
T1 sequence (P48548 1-419): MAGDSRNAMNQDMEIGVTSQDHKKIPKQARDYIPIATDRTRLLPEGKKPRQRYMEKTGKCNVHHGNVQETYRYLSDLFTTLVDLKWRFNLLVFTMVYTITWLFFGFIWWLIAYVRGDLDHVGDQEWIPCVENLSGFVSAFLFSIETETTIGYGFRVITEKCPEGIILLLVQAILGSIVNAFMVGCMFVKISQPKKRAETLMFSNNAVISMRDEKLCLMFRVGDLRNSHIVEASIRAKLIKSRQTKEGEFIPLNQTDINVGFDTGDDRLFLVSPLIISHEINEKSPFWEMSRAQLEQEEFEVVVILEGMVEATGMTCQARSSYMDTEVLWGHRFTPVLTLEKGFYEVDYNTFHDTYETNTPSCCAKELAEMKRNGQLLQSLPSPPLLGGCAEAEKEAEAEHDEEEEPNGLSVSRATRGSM
The experiment is described as follows: Kir3.1/3.4 Q-patch Method (automated patch clamp, Sophion Q-patch). Format: cell-based. The note with it: HEK293 cells stably-expressing Kir3.1/3.4; current at -120 mV; QPatch-16 or QPatch-48. The method, then: For automated patch-clamp studies using the Sophion Q-patch, accumulative concentration-responses experiments were conducted to determine compound activity against the ion channel target. Voltage-clamp experiments were performed using HEK293 cells stably-expressing Kir3.1/3.4 using either a QPatch-16 or QPatch-48 (Sophion Bioscience A/S). A voltage waveform (VHold−20 mV, step to 60 mV for 100 ms, ramp to −120 mV over 500 ms, hold at −120 mV for 100 ms before returning to VHold) was repeatedly applied to the cells under voltage-clamp at a frequency of 0.1 Hz to elicit Kir3.1/3.4 currents. Mean current at −120 mV was measured in the absence (Icontrol) and presence of drug (IDrug). Assessment of passive leak was performed by removal of external potassium (IZero). Leak current was subtracted from control and drug recordings. Current inhibition (%) was calculated as {1−[(IDrug−IZero)/(IControl−IZero)]}*100. Data were fitted with a sigmoidal function to yield an IC50 and Hill coefficient. Composition of external experimental buffer was (in mM): 40 NaCl, 100 KCl, 5 CaCl2, 1 MgCl2, 10 HEPES pH 7.4. Composition of internal solution was (in mM). 40 K-gluconate, 60 KF, 20 NaCl, 5 Mg-ATP, 0.9 GTPgS, 20 EGTA, pH 7.2. Compounds were formulated in DMSO and diluted in buffer to give a final drug concentration of between […] and a final DMSO concentration of 0.1-0.3%.
(Patch clamp records ionic current or voltage across a cell membrane.)

The target in experiment [2] is T1, Kir3.1/3.4. Briefly: Kir3.1/3.4 Electrophysiology Method (manual whole-cell patch clamp). Format: cell-based. The conditions noted are these: Electrophysiology Method (TABLE 1). In a few lines:
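Manual whole-cell patch clamp on HEK293 cells stably expressing rat Kir3.1/3.4, with GTPγS in the pipette. Cells were held at −60 mV and stepped to +60 mV, then ramped to −140 mV every 10 s. Steady-state inhibition at −140 mV was measured after subtracting leak recorded in zero-K+ bath.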

Regarding `NC(=O)C1CCCN(c2nc(N3C4CCC3COC4)c3c(-c4ccccc4Cl)csc3n2)C1` (centres unmarked) [Example 410, 1-[5-(2-chlorophenyl)-4-(3-oxa-8-azabicyclo[3.2.1]octan-8-yl)thieno[2,3-d]pyrimidin-2-yl]piperidine-3-carboxamide], in experiment [1], the IC50 (usually the midpoint of a concentration-inhibition curve) lay in the range of 500 to 3000 nM.
Same read-out and setting: in the case of `NC(=O)C1CCN(c2nc(N3C4CCC3COC4)nc3scc(-c4ccccc4Cl)c23)C1` (centres unmarked) [Example 415, 1-[5-(2-chlorophenyl)-2-(3-oxa-8-azabicyclo[3.2.1]octan-8-yl)thieno[2,3-d]pyrimidin-4-yl]pyrrolidine-3-carboxamide] it was 500 to 3000 nM; in that of `COc1ncccc1-c1csc2ncnc(N3C4CCC3CC(CNC3CCC3)C4)c12` (centres unmarked) [Example 427, N-[[8-[5-(2-methoxy-3-pyridyl)thieno[2,3-d]pyrimidin-4-yl]-8-azabicyclo[3.2.1]octan-3-yl]methyl]cyclobutanamine], < 500 nM; in that of `COC1CC2CCC(C1)N2c1nc(N2CCNC(C(N)=O)C2)nc2scc(-c3ccccc3Cl)c12` (centres unmarked) [Example 392, 4-[5-(2-chlorophenyl)-4-(3-methoxy-8-azabicyclo[3.2.1]octan-8-yl)thieno[2,3-d]pyrimidin-2-yl]piperazine-2-carboxamide], < 500 nM.
Still for that read-out and setting: under `OC1CC2CCC(C1)N2c1nc(N2C3CCC2COC3)c2c(-c3ccccc3Cl)csc2n1` (centres unmarked) [Example 421, 8-[5-(2-chlorophenyl)-4-(3-oxa-8-azabicyclo[3.2.1]octan-8-yl)thieno[2,3-d]pyrimidin-2-yl]-8-azabicyclo[3.2.1]octan-3-ol] stands < 500 nM; under `COc1ccccc1-c1csc2nc(N3CCNC(=O)C3)nc(N3C4CCC3CC(OC)C4)c12` (centres unmarked) [Example 380, 4-[4-(3-methoxy-8-azabicyclo[3.2.1]octan-8-yl)-5-(2-methoxyphenyl)thieno[2,3-d]pyrimidin-2-yl]piperazin-2-one], < 500 nM; under `NC(=O)C1CCCN(c2nc(N3C4CCC3CC(CO)C4)nc3scc(-c4ccccc4Cl)c23)C1` (centres unmarked) [Example 393, 1-[5-(2-chlorophenyl)-2-[3-(hydroxymethyl)-8-azabicyclo[3.2.1]octan-8-yl]thieno[2,3-d]pyrimidin-4-yl]piperidine-3-carboxamide], < 500 nM.
As to `COCC1CC2CCC(C1)N2c1nc(N2CCNC(=O)C2)nc2scc(-c3ccccc3OC)c12` (centres unmarked) [Example 378, 4-[4-[3-(methoxymethyl)-8-azabicyclo[3.2.1]octan-8-yl]-5-(2-methoxyphenyl)thieno[2,3-d]pyrimidin-2-yl]piperazin-2-one], in experiment [1], the IC50 was in the range of 500 to 3000 nM.
Take `COCC1CCN(c2nc(CCN3CCCC3)nc3scc(-c4ccc(F)cc4)c23)CC1` [Example 184, 5-(4-fluorophenyl)-4-[4-(methoxymethyl)-1-piperidyl]-2-(2-pyrrolidin-1-ylethyl)thieno[2,3-d]pyrimidine]: the IC50 in experiment [2] is < 500 nM.
Regarding `OCC1(NCC2CCN(c3ncnc4scc(-c5ccccc5)c34)CC2)CCCC1` [Example 54, [1-[[1-(5-phenylthieno[2,3-d]pyrimidin-4-yl)-4-piperidyl]methylamino]cyclopentyl]methanol], the IC50 in experiment [2] was < 500 nM.
Same read-out and setting: under `c1ccc(-c2csc3nc(N4CCN(CCN5CCCC5)CC4)ncc23)cc1` [Example 145] stands < 500 nM; under `CN1CCC(N(C)CC2CCN(c3nc(N4CCNCC4)nc4scc(-c5ccccc5)c34)CC2)C1` (centres unmarked) [Example 112], < 500 nM.
Still for that read-out and setting: in the case of `CN(C)C(=O)c1sc2ncnc(N3CCC(COCCN4CCCC4)CC3)c2c1-c1cccc(F)c1` [Example 138] it was < 500 nM; in that of `CC(C)c1csc2ncnc(N3CCC(COCCN4CCCC4)CC3)c12` [Example 265], < 500 nM; in that of `O=C1CN(CC2CCN(c3ncnc4scc(-c5ccccc5)c34)CC2)CCN1` [Example 213], 500 to 3000 nM.
Still for that read-out and setting: under `CC1CCN(CC2CCN(c3ncnc4scc(-c5ccccc5)c34)CC2)C1` (centres unmarked) [Example 50, 4-[4-[(3-methylpyrrolidin-1-yl)methyl]-1-piperidyl]-5-phenyl-thieno[2,3-d]pyrimidine] stands 500 to 3000 nM; under `CNC(=O)C1(NCC2CCN(c3ncnc4scc(-c5ccccc5)c34)CC2)CCC1` [Example 260], < 500 nM; under “N-(2-pyrrolidin-1-ylethyl)thieno[2,3-d]pyrimidin-2-amine [Example 108]”, 500 to 3000 nM.
As to `Brc1sc2nccc(N3CCC(COCCN4CCCC4)CC3)c2c1-c1ccccc1` [Example 143], the IC50 in experiment [2] is < 500 nM.
Same read-out and setting: in the case of `CC(C)c1csc2ncnc(N3C4CCC3CC(OCCN3CCCC3)C4)c12` (centres unmarked) [Example 297] it was < 500 nM; in that of `COCC1CCN(c2nc(N(C)C3CCN(C)C3)nc3scc(-c4ccccc4)c23)CC1` (centres unmarked) [Example 193], < 500 nM; in that of `c1ccc(-c2csc3ncnc(N4CC[C@@H](COCCN5CCCC5)C4)c23)cc1` [Example 262], < 500 nM.
Take `c1ccc(-c2csc3nc(C4CC4)nc(N4C5CCC4CC(N4CCC4)C5)c23)cc1` (centres unmarked) [Example 322]: the IC50 in experiment [2] is < 500 nM.
The same measure, in the same setting: in the case of `CC(C)c1csc2ncnc(N3CC4CC3CC4OCCN3CCCC3)c12` (centres unmarked) [Example 288] it was < 500 nM; in that of `CN(C)C1CCN(c2ncnc3scc(-c4ccccc4)c23)CC1` [Example 169], 500 to 3000 nM; in that of `NC1CCCN(CC2CCN(c3ncnc4scc(-c5ccccc5)c34)CC2)C1` (centres unmarked) [Example 211], < 500 nM.
Still for that read-out and setting: under `CCOc1ncccc1-c1csc2ncnc(N3CCC(COCCN4CCCC4)CC3)c12` [Example 331] stands < 500 nM.
The same measure, in the same setting: under “8-azabicyclo[3.2.1]octan-3-amine [Example 325]” stands < 500 nM; under `c1sc2nc(N3CCC(COCCN4CCCC4)CC3)ncc2c1C1CCCCC1` [Example 283], < 500 nM.
In the case of `CC(C)NC(=O)c1sc2ncnc(N3C4CCC3CC(N3CCCC3)C4)c2c1-c1ccccc1` (centres unmarked) [Example 354], the IC50 in experiment [2] is < 500 nM.
In the case of `O=C(NCCO)c1sc2ncnc(N3CCC(COCCN4CCCC4)CC3)c2c1-c1ccccc1` [Example 280], the IC50 in experiment [2] was 500 to 3000 nM.
On the same count and under the same terms, in the case of `CC(C)c1csc2ncnc(N3C4CCC3CC(COCCN3CCCC3)C4)c12` (centres unmarked) [Example 287] it was < 500 nM.
For the compound `CC(C)c1csc2ncnc(N3CCC(CNCCC4CCCN4C)CC3)c12` (centres unmarked) [Example 242], the IC50 in experiment [2] is < 500 nM.
Turning to `COc1cccc(-c2csc3ncnc(N4CCC(COCCN5CCCC5)CC4)c23)c1` [Example 312], the IC50 in experiment [2] was < 500 nM.
Same read-out and setting: under `Cc1csc2ncnc(N3CCC(CNCCC4CCCN4C)CC3)c12` (centres unmarked) [Example 243] stands < 500 nM; under `Cc1csc2ncnc(N3CCC(COCCC4CCCN4C)CC3)c12` (centres unmarked) [Example 2, 5-methyl-4-[4-[2-(1-methylpyrrolidin-2-yl)ethoxymethyl]-1-piperidyl]thieno[2,3-d]pyrimidine], 500 to 3000 nM; under `CN1CCCCC1CCNCC1CCN(c2ncnc3scc(-c4ccccc4)c23)CC1` (centres unmarked) [Example 80, 2-(1-methyl-2-piperidyl)-N-[[1-(5-phenylthieno[2,3-d]pyrimidin-4-yl)-4-piperidyl]methyl]ethanamine], < 500 nM.
Same read-out and setting: under `CN1CC(NCC2CCN(c3ncnc4scc(-c5ccccc5)c34)CC2)CC1=O` (centres unmarked) [Example 91, 1-methyl-4-[[1-(5-phenylthieno[2,3-d]pyrimidin-4-yl)-4-piperidyl]methylamino]pyrrolidin-2-one] stands 500 to 3000 nM.
